The numbers were not newly measured in US9693981B2 (INTEC PHARMA LTD., priority 2008, dated 2017), which cites them from elsewhere.

The conditions of data set [1]: high-fat/heavy meal compared to the fasted state, healthy adults.
The conditions of data set [2]: according to the USP 30.

Turning to `CCN(C(C)=O)c1cccc(-c2ccnc3c(C#N)cnn23)c1` [Zaleplon], in data set [1], the AUC result is on record as “not significantly affected”, the “delay of Tmax” value is given as “approximately 2 hours” and the “reduction of Cmax” value is given as “approximately 35%”. In addition, in data set [2], the solubility result is reported as “very slightly soluble”.
